In PubChem BioAssay AID1963872 (Molecular Pharmacology Branch, DTP, NCI, 2024):
Where “and” joins values, the source holds several entries; their conditions need not be identical. Equal entries are not always repeated.

Tested on: KRAS patient-derived spheroids with HUVEC/MSC, viability
Test: Anticancer human tumor 519858-162-T-J1-PDC patient-derived colon adenocarcinoma cell line growth inhibition [KRAS2]
Conditions: for viability, T/C: stronger effect = lower value
Excerpt: Multicellular complex tumor spheroid response to RAS pathway inhibitors in combination with a targeted agents in patient-derived cell lines with oncogenic KRAS variants from multiple cancer types
A high-throughput screen of multi-cell type tumor spheroids was designed to identify active combinations of targeted small molecules and KRAS pathway inhibitors. Complex spheroids include a stromal component modeled by human endothelial cells (HUVEC) and fibroblasts modeled by human mesenchymal stem cells (MSCs). The concentration ranges selected for each drug and investigational agent were based upon clinically achievable concentrations if the clinical Cmax of the agent was known.
Compounds. The drugs and investigational agents: BI-3406 (NSC825286), BAY-293 (NSC824723), batoprotafib (TNO155; NSC825523), sotorasib (AMG 510; NSC818433), MRTX1257 (NSC819558), elimusertib (BAY 1895344; NSC800525), molibresib (GSK525762; NSC774829), temuterkib (LY3214996; NSC803410), venetoclax (NSC766270), alisertib (NSC759677), olaparib (NSC753686), talazoparib (NSC767125), erdafitinib (NSC781556), ipatasertib (NSC767898), cabozantinib (NSC761068), nintedanib (NSC756659), abemaciclib (NSC768073), docetaxel (NSC628503), trametinib (NSC758246), and sapanisertib (NSC764658) were obtained from the National Cancer Institute (NCI) Developmental Therapeutics Program Chemical Repository. The FDA-approved anticancer drug set is available from the Developmental Therapeutics Program. […] The stock solutions were prepared in dimethyl sulfoxide (DMSO, Sigma-Aldrich, St. Louis, MO, cat. D2650) at 800-fold the tested concentration and stored at -70 degrees C prior to their use. All drugs and investigational agents were tested over a range starting from a high concentration at or near the clinical Cmax and decreasing in half-log increments. If the clinical Cmax for an agent had not been determined, the highest concentration tested was 10 microM.
Cell Culture. All cells were maintained in an incubator at 37 degrees C and 5% CO2 with 95% humidity. The PDC lines were cultured according to standard operating procedures established by the NCI PDMR (https://pdmr.cancer.gov/sops/default.htm). Briefly, all PDCs were thawed and cultured in Matrigel-coated flasks prepared with a working solution of 1X Ham's F-12 nutrient mix, without supplementation (Invitrogen, Waltham, MA, cat. 11765054), 100 U/mL penicillin-streptomycin (Invitrogen, cat. 15140122), and 2.5% Matrigel (Corning Inc., Corning, NY, cat. 354248) for the first three passages. All PDCs were cultured in complete DMEM/F-12 media containing advanced DMEM/F-12 (Invitrogen, cat. 12634028), 4.9% defined fetal bovine serum, heat inactivated (HyClone Laboratories Inc., Logan, UT, cat. SH30070.03HI), 389 ng/mL hydrocortisone (Sigma-Aldrich, cat. H4001), 9.7 ng/mL human EGF recombinant protein (Invitrogen, cat. PHG0313), 23.4 microg/mL adenine (Sigma-Aldrich, cat. A2786), 97.3 U/mL penicillin-streptomycin (Invitrogen, cat. 15140122), 1.9 mM L-glutamine (Invitrogen, cat. 25030081), and 9.7 microM Y-27632 dihydrochloride (Tocris Bioscience, Bristol, United Kingdom, cat. 1254). The PDCs were cultured in complete DMEM/F12 media without 9.7 microM Y-27632 dihydrochloride for at least two passages prior to the screen. The established cell line HOP-62 was cultured in RPMI 1640 medium, HEPES (Invitrogen, cat. 22400105) with 10% defined fetal bovine serum (HyClone Laboratories Inc., cat. SH30070.03) and 2 mM L-glutamine (Invitrogen, cat. 25030081). The pooled donor HUVEC were cultured in endothelial cell growth medium 2 (PromoCell, Heidelberg, Germany, cat. C-22011) and the hMSC were cultured in mesenchymal stem cell growth medium 2 (PromoCell, cat. C-28009). For all experiments, HUVEC and hMSC were used at passages </=5, while the malignant cell lines were used at passages </=15. […]

[1] = curve of first compound, second compound 0.1 µM
[2] = curve of first compound, second compound 0.316 µM
[3] = curve of first compound, second compound 1 µM
[4] = curve of first compound, second compound 3.16 µM
[5] = second compound 0.1 µM, first compound 0.0316 µM
[6] = second compound 0.1 µM, first compound 0.1 µM
[7] = second compound 0.1 µM, first compound 0.316 µM
[8] = second compound 0.1 µM, first compound 1 µM
[9] = second compound 0.1 µM, first compound 3.16 µM
[10] = second compound 0.1 µM, first compound 10 µM
[11] = second compound 0.316 µM, first compound 0.0316 µM
[12] = second compound 0.316 µM, first compound 0.1 µM
[13] = second compound 0.316 µM, first compound 0.316 µM
[14] = second compound 0.316 µM, first compound 1 µM
[15] = second compound 0.316 µM, first compound 3.16 µM
[16] = second compound 0.316 µM, first compound 10 µM
[17] = second compound 1 µM, first compound 0.0316 µM
[18] = second compound 1 µM, first compound 0.1 µM
[19] = second compound 1 µM, first compound 0.316 µM
[20] = second compound 1 µM, first compound 1 µM
[21] = second compound 1 µM, first compound 3.16 µM
[22] = second compound 1 µM, first compound 10 µM
[23] = second compound 3.16 µM, first compound 0.0316 µM
[24] = second compound 3.16 µM, first compound 0.1 µM
[25] = second compound 3.16 µM, first compound 0.316 µM
[26] = second compound 3.16 µM, first compound 1 µM
[27] = second compound 3.16 µM, first compound 3.16 µM
[28] = second compound 3.16 µM, first compound 10 µM
[29] = curve of first compound, second compound 0.0316 µM
[30] = second compound 0.0316 µM, first compound 0.0316 µM
[31] = second compound 0.0316 µM, first compound 0.1 µM
[32] = second compound 0.0316 µM, first compound 0.316 µM
[33] = second compound 0.0316 µM, first compound 1 µM
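Further: compound exposure lasted seven days before readout.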
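Wherever viability, T/C is given: 100% = DMSO vehicle control viability.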

| SMILES | IC50 [1] [µM] | IC50 [2] [µM] | IC50 [3] [µM] | IC50 [4] [µM] | viability, T/C [5] [%] | viability, T/C [6] [%] | viability, T/C [7] [%] | viability, T/C [8] [%] | viability, T/C [11] [%] | viability, T/C [12] [%] | viability, T/C [13] [%] | viability, T/C [14] [%] | viability, T/C [17] [%] | viability, T/C [18] [%] | viability, T/C [19] [%] | viability, T/C [20] [%] | viability, T/C [23] [%] | viability, T/C [24] [%] | viability, T/C [25] [%] | viability, T/C [26] [%] | also measured |
| --- | --- | --- | --- | --- | --- | --- | --- | --- | --- | --- | --- | --- | --- | --- | --- | --- | --- | --- | --- | --- | --- |
| Cn1nccc1Nc1nccc(-c2cc3c(s2)C(C)(C)N(CCN2CCOCC2)C3=O)n1 + C=CC(=O)N1CCN(c2nc(=O)n(-c3c(C)ccnc3C(C)C)c3nc(-c4c(O)cccc4F)c(F)cc23)C(C)C1 | 4.83 | > 10 | 5.46 | 1.93 | 69 | 106 | 81.6 | 83.5 | 123 | 79.5 | 77.9 | 70.4 | 76.4 | 94.9 | 63.8 | 80.3 | 82.3 | 106 | 70.5 | 55.2 | IC50 (curve of first compound, second compound 10 µM): 1.52 µM; viability, T/C [9]: 56.5%; viability, T/C [10]: 38.9%; viability, T/C [15]: 74.2%; viability, T/C [16]: 42.5%; viability, T/C [21]: 59.4%; viability, T/C [22]: 37.9%; viability, T/C [27]: 51.9%; viability, T/C [28]: 29.3%; viability, T/C (second compound 10 µM, first compound 0.0316 µM): 91%; viability, T/C (second compound 10 µM, first compound 0.1 µM): 72.3%; viability, T/C (second compound 10 µM, first compound 0.316 µM): 58.9%; viability, T/C (second compound 10 µM, first compound 1 µM): 51%; viability, T/C (second compound 10 µM, first compound 3.16 µM): 49.3%; viability, T/C (second compound 10 µM, first compound 10 µM): 43.6% |
| COC(=O)c1ccc2c(C(=Nc3ccc(N(C)C(=O)CN4CCN(C)CC4)cc3)c3ccccc3)c(O)[nH]c2c1 + C=CC(=O)N1CCN(c2nc(OCC3CCCN3C)nc3c2CCN(c2cccc4cccc(C)c24)C3)CC1CC#N | > 10 | > 10 | > 10 | 4.84 | 89 | 89.5 | 65.8 | 68.4 | 90.4 | 73.5 | 59.7 | 66.7 | 61.9 | 74.7 | 67.5 | 57.1 | 60.5 | 75.1 | 68.6 | 109 | IC50 [29]: > 10 µM; viability, T/C [30]: 97.4%; viability, T/C [31]: 113%; viability, T/C [32]: 86.8%; viability, T/C [33]: 97.8%; viability, T/C (second compound 0.0316 µM, first compound 3.16 µM): 76.4%; viability, T/C (second compound 0.0316 µM, first compound 10 µM): 106%; viability, T/C [9]: 120%; viability, T/C [10]: 68.7%; viability, T/C [15]: 68.9%; viability, T/C [16]: 76.9%; viability, T/C [21]: 81.7%; viability, T/C [22]: 147%; viability, T/C [27]: 82.2%; viability, T/C [28]: 0.39% |
| CC1OCC2(CCN(c3cnc(Sc4ccnc(N)c4Cl)c(N)n3)CC2)C1N (configuration not stated) |  |  |  |  |  |  |  |  |  |  |  |  |  |  |  |  |  |  |  |  | viability, T/C (compound 0.0316 µM): 81.1% and 93.6% and 89.9%; IC50 (compound alone, run of 07/12/2021): > 10 µM; IC50 (compound alone, run of 07/19/2021): 9.24 µM and > 10 µM; IC50 (curve of compound): > 10 µM and 10 µM |
| CC(=O)Nc1cccc(-n2c(=O)n(C3CC3)c(=O)c3c(Nc4ccc(I)cc4F)n(C)c(=O)c(C)c32)c1 |  |  |  |  |  |  |  |  |  |  |  |  |  |  |  |  |  |  |  |  | viability, T/C (compound 0.0001 µM): 82.5% [middle of 5 runs]; viability, T/C (compound 0.01 µM): 35.6% [middle of 5 runs]; viability, T/C (compound 0.0316 µM): 20.8% [middle of 5 runs] |
| CCN1CCN(Cc2ccc(Nc3ncc(F)c(-c4cc(F)c5nc(C)n(C(C)C)c5c4)n3)nc2)CC1 + C=CC(=O)N1CCN(c2nc(OCC3CCCN3C)nc3c2CCN(c2cccc4cccc(C)c24)C3)CC1CC#N | 0.599 | > 1 | 0.654 | > 1 | 75.8 | 76.4 | 68.7 | 34.9 | 70.7 | 64.9 | 49.1 | 56.5 | 60.8 | 63 | 73 | 38.4 | 64.4 | 69.2 | 76 | 37.4 | IC50 [29]: > 1 µM; viability, T/C (second compound 0.0316 µM, first compound 0.00316 µM): 76.5%; viability, T/C (second compound 0.0316 µM, first compound 0.01 µM): 57.7%; viability, T/C [30]: 72.2%; viability, T/C [31]: 63.6%; viability, T/C [32]: 81.8%; viability, T/C [33]: 66.2%; viability, T/C (second compound 0.1 µM, first compound 0.00316 µM): 81.6%; viability, T/C (second compound 0.1 µM, first compound 0.01 µM): 79.1%; viability, T/C (second compound 0.316 µM, first compound 0.00316 µM): 61.7%; viability, T/C (second compound 0.316 µM, first compound 0.01 µM): 78.4%; viability, T/C (second compound 1 µM, first compound 0.00316 µM): 82.1%; viability, T/C (second compound 1 µM, first compound 0.01 µM): 71.8%; viability, T/C (second compound 3.16 µM, first compound 0.00316 µM): 51.3%; viability, T/C (second compound 3.16 µM, first compound 0.01 µM): 86.8% |
